{"source": "ChEMBL document CHEMBL1158498", "about": "“Synthesis of 4'-ester analogs of resveratrol and their evaluation in malignant melanoma and pancreatic cell lines” (Bioorg Med Chem Lett, 2010)", "key": {"PANC-1 [1]": {"test_system": "PANC-1", "assay": "Cytotoxicity against human PANC1 cells at 50 uM after 72 hrs by WST-1 assay in presence of gemcitabine", "format": "functional, cell-based"}, "DM738": {"test_system": "DM738", "assay": "Cytotoxicity against human DM738 cells at 50 uM after 72 hrs by WST-1 assay", "format": "functional, cell-based"}, "DM443": {"test_system": "DM443", "assay": "Cytotoxicity against human DM443 cells at 50 uM after 72 hrs by WST-1 assay", "format": "functional, cell-based"}, "NHDF": {"test_system": "NHDF", "assay": "Cytotoxicity against human NHDF cells at 50 uM after 72 hrs by WST-1 assay", "format": "cell-based"}, "PANC-1 [2]": {"test_system": "PANC-1", "assay": "Cytotoxicity against human PANC1 cells at 50 uM after 72 hrs by WST-1 assay", "format": "functional, cell-based"}}, "note": "Activity calls are given as the source filed them. No cut-off for these calls is given here.", "data": [{"smiles": "CCCCCC(=O)Oc1ccc(/C=C/c2cc(O)cc(O)c2)cc1", "values": [{"measurement": "Activity", "setting": "PANC-1 [1]", "result": "Not toxic"}, {"measurement": "Activity", "setting": "DM738", "result": "Active"}, {"measurement": "Activity", "setting": "DM443", "result": "Active"}]}, {"smiles": "CC(C)C(=O)Oc1ccc(/C=C/c2cc(O)cc(O)c2)cc1", "values": [{"measurement": "Activity", "setting": "PANC-1 [1]", "result": "Not toxic"}, {"measurement": "Activity", "setting": "DM738", "result": "Active"}, {"measurement": "Activity", "setting": "DM443", "result": "Active"}]}, {"smiles": "Oc1cc(F)cc(/C=C/c2ccc(F)cc2)c1", "values": [{"measurement": "Activity", "setting": "PANC-1 [1]", "result": "Not toxic"}, {"measurement": "Activity", "setting": "DM738", "result": "Active"}, {"measurement": "Activity", "setting": "DM443", "result": "Active"}]}, {"smiles": "CC(=O)Oc1ccc(/C=C/c2cc(O)cc(O)c2)cc1", "values": [{"measurement": "Activity", "setting": "NHDF", "result": "Non-toxic"}, {"measurement": "Activity", "setting": "PANC-1 [2]", "result": "Active"}]}, {"smiles": "CC(=O)Oc1cc(O)cc(/C=C/c2ccc(O)cc2)c1", "values": [{"measurement": "Activity", "setting": "PANC-1 [1]", "result": "Not toxic"}]}, {"smiles": "CC(=O)Oc1ccc(/C=C/c2cc(OC(C)=O)cc(OC(C)=O)c2)cc1", "values": [{"measurement": "Activity", "setting": "PANC-1 [1]", "result": "Not toxic"}, {"measurement": "Activity", "setting": "PANC-1 [2]", "result": "Active"}]}, {"smiles": "Oc1ccc(/C=C/c2cc(O)cc(O)c2)cc1", "values": [{"measurement": "Activity", "setting": "PANC-1 [1]", "result": "Not toxic"}]}, {"smiles": "CCCCCCCCCCCCCCCC(=O)Oc1ccc(/C=C/c2cc(O)cc(O)c2)cc1", "values": [{"measurement": "Activity", "setting": "PANC-1 [1]", "result": "Not toxic"}]}, {"smiles": "CCCC(=O)Oc1ccc(/C=C/c2cc(O)cc(O)c2)cc1", "values": [{"measurement": "Activity", "setting": "PANC-1 [1]", "result": "Not toxic"}, {"measurement": "Activity", "setting": "DM738", "result": "Active"}, {"measurement": "Activity", "setting": "DM443", "result": "Active"}]}, {"smiles": "O=C(CCCCC(=O)Oc1ccc(/C=C/c2cc(O)cc(O)c2)cc1)Oc1ccc(/C=C/c2cc(O)cc(O)c2)cc1", "values": [{"measurement": "Activity", "setting": "PANC-1 [1]", "result": "Not toxic"}, {"measurement": "Activity", "setting": "NHDF", "result": "Non-toxic"}]}, {"smiles": "CC(=O)Oc1cc(/C=C/c2ccc(O)cc2)cc(OC(C)=O)c1", "values": [{"measurement": "Activity", "setting": "PANC-1 [1]", "result": "Not toxic"}]}]}
